From patent publication US20070202079A1, “Therapeutic compositions and methods useful in modulating protein tyrosine phosphatases” (priority 2006, published 2007)
Read-outs that look alike come from different tables or passages of the source.

Legend:
PRL-3 = biological target: T1, PRL-3 (Homo sapiens, UniProt O75365); experiment: in vitro PTPase assay, recombinant PRL-3; format: biochemical; details: for remaining PRL-3 PTPase activity: 0.1-100 μg/ml
T1 construct: cDNAs of human PRL-1, PRL-2 and PRL-3 coding region were derived by RT-PCR; made in house; host or cells: DH5a bacteria (E. coli)
Description: Sodium stibogluconate, suramin, sodium orthovanadate and GST fusion protein of SHP-1 have been described previously (Pathak et al., J. Immunol. 167, 3391 (2001)). Meglumine antimonate was obtained from Aventis. cDNAs of human PRL-1, PRL-2 and PRL-3 coding region were derived by RT-PCR from H9 cells (Safai, et al., Lancet 1, 1438 (1984)) and inserted in frame into the pGEX vector. cDNA of PRL-1R86 was generated by recombinant DNA technique using PRL-1 cDNA as template following established procedures (Jiao, et al., Mol. Cell. Biol. 16, 6985 (1996)). GST fusion proteins of the PRL phosphatases were prepared from DH5a bacteria transformed with the pGEX fusion protein constructs as described previously (Yi, et al., Mol. Cell. Biol. 12, 836 (1992)). cDNAs encoding the PRLs tagged at the N-termini with the Flag epitope (Castrucci, et al., J. Virol. 66, 4647 (1992)) were generated via recombinant DNA technique, sequenced to confirm their identities and cloned into the pBabepuro vector (Yang, et al., Blood 91, 3746 (1998)). Anti-Flag monoclonal antibody (M2, Sigma) was purchased from a commercial source. A synthetic phosphotyrosine peptide (Arg-Arg-Leu-Ile-Glu-Asp-Ala-Gle-Tyr-Al- -a-Ala-Arg-Gly (SEQ ID NO: 3), wherein the tyrosine is phosphorylated; UBI) and DiFMUP (6, 8-difluoro-4-methylumbelliferyl phosphate, Molecular Probes) were purchased as substrates for PTPase assays.
In vitro PTPase assays were used to determine the effects of compounds on recombinant PTPases, following established procedures using a synthetic phosphotyrosine peptide or DiFMUP as the substrate (Pathak et al., J. Immunol. 167, 3391 (2001)). Briefly, individual PTPases (0.1 μg/reaction) in 50 μL of PTPase buffer (50 mM Tris, pH 7.4) were incubated at 22° C. for 10 minutes or as indicated in the absence or presence of inhibitory compounds. Substrates (0.2 mM phosphotyrosine peptide) were then added and allowed to react at 22° C. for 18 hrs. PTPase activity of individual reactions was measured by adding 100 μL of malachite green solution (UBI) and then quantifying the amounts of free phosphate cleaved by the PTPase from the peptide substrate by spectrometry (OD660 nm). PTPase assays using DiFMUP as a substrate were conducted following a previously described procedure (Matter, et al., Biochem. Biophys. Res. Comm. 283, 1061 (2001)). Relative PTPase activities were calculated based on the formula: (PTPase activity in the presence of an inhibitory compound/PTPase activity in the absence of the compound)× 100%. To assess the reversibility of PTPase inhibition, GST fusion proteins of the PTPases bound on glutathione beads (Pharmacia) were pre-incubated with cold Tris buffer (50 mM Tris, pH 7.0) or Tris buffer containing the inhibitor at 4° C. for 30 minutes. The beads were then washed three times in cold Tris buffer or not washed prior to subjecting to in vitro PTPase assays.

MKP1 = biological target: T2, MKP1 (Homo sapiens, UniProt P28562); experiment: in vitro PTPase assay, GST/MKP1; format: biochemical; details: for inhibition of MKP1: levamisole, pentamidine, ketoconazole
T2 construct: a pGEX construct containing the coding region of MKP1 cDNA derived by RT-PCR; made in house; host or cells: DH5a bacteria (E. coli)
T2 sequence (P28562 1-367): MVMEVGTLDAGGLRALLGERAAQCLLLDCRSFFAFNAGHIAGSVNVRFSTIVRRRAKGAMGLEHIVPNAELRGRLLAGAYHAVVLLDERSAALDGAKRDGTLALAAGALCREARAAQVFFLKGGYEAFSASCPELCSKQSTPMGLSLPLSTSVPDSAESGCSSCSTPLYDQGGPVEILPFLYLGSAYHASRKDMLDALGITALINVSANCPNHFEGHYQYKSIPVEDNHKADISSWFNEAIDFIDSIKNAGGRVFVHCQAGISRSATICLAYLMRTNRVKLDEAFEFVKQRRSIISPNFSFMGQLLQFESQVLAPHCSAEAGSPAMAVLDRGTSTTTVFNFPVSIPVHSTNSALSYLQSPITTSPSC
Method: In vitro PTPase activities were measured using the commercial protein tyrosine phosphatase assay kit (Upstate Biotechnology, Inc. (“UBI”)) following established procedure known to one of skill in the art. This assay measures the in vitro dephosphorylation of a synthetic phosphotyrosine peptide of the sequence Arg-Arg-Leu-Ile-Glu-Asp-Ala-Gle-T- -yr-Ala-Ala-Arg-Gly, wherein the tyrosine is phosphorylated (SEQ ID NO: 3). Briefly, 0.01 μg of GST/PTPase fusion proteins was incubated in 50 μl of Tris buffer (10 mM Tris, pH 7.4) containing different concentrations of inhibitors or chemicals (0-1,000 μg/ml) at 22° C. for 10 minutes, followed by addition of 0.2 mM of the phosphotyrosine peptide and incubation at 22° C. for 18 hours. 100 μl of Malachite Green solution was added and incubated for 5 minutes, and the absorbance at 660 nm was measured after 5 minutes.
In vitro PTPase assays were used to determine the effects of levamisole (Sigma), pentamidine (American Pharmaceutical Partners, Inc.), and ketoconazole (Sigma) on recombinant PTPases, following established procedures (Pathak et al., J. Immunol. 167, 3391 (2001); Pathak et al., Leukemia 16, 2285 (2002), Yi et al., J. Immunol. 169, 5978 (2002)) using a synthetic phosphotyrosine peptide or DiFMUP as the substrate as detailed above in section I.A.2.

T1 sequence (O75365 whole entry): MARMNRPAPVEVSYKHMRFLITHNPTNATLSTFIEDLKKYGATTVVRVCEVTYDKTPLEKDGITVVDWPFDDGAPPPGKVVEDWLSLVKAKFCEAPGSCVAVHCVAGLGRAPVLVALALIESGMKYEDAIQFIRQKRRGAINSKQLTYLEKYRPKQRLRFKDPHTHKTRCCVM

CC(=O)N1CCN(c2ccc(OCC3COC(Cn4ccnc4)(c4ccc(Cl)cc4Cl)O3)cc2)CC1 (centres unmarked) [ketoconazole]
remaining PRL-3 PTPase activity (PRL-3): 25-40%
inhibition of MKP1 (MKP1): substantial inhibition

O.O.O.O.O.O.O.O.O.O=C([O-])[C@@H]1[O][Sb]2([O-])([O][Sb]34([OH])[O][C@H]([C@H](O)CO)[C@H]([O]3)[C@H](C(=O)[O-])[O]4)[O][C@H]([C@H](O)CO)[C@@H]1[O]2.[Na+].[Na+].[Na+] [sodium stibogluconate]
inhibition of PRL-3 after washing (PRL-3): not relieved by a washing process
inactivation of PRL-3 with prolonged pre-incubation (PRL-3; 10 μg/ml, pre-incubation 30 or 60 minutes): nearly complete inactivation
inhibitory activity against MKP1 (MKP1): no obvious inhibitory activity
inhibitory activity against MKP1 (MKP1; listed as SS): no obvious effects

N=C(N)c1ccc(OCCCCCOc2ccc(C(=N)N)cc2)cc1 [pentamidine]
remaining PRL-3 PTPase activity (PRL-3): 20-30%
inhibition of MKP1 (MKP1): substantial inhibition
